The results in this text go back to US6017883A, “Composition and methods for the inhibition of phagocytes” (Research Corporation Technologies, Inc., priority 1998, dated 2000).

Data set [1] relates to PMN. As to the kind of experiment: PMN viability by LDH release. As to conditions: concentrations that inhibited chemotaxis and oxidant production. As for the experimental part:
PMN viability after exposure to NIP (seq id no:1) or control peptide for varying amounts of time was assessed by measuring LDH release using a commercially available kit (Sigma).

For data set [2], the system named is PMN. As to the kind of experiment: fMLP-induced PMN calcium transients. As to conditions: pertussis toxin pretreatment of indo-loaded PMN. It counts as cell-based, human.
The subject of data set [3] is PMN. As to conditions: pertussis toxin pretreatment of indo-loaded PMN.

Where no end group is shown, it is not given here.

In the case of “REGSYFFGDNA [NIP, Arg-Glu-Gly-Ser-Tyr-Phe-Phe-Gly-Asp-Asn-Ala]”, the “cellular viability as determined by LDH release” value in the data set on PMN [1] was “did not significantly alter cellular viability”.

Take pertussis toxin: the “rise in cytosolic calcium concentration induced by 1 μM fMLP” value with PMN [2] was “Attenuation”. In the data set with PMN [3], the “ionomycin-induced rise in cytosolic calcium” value is given as “no effect”.
